Data published in patent US20250388575A1, “HETEROBIFUNCTIONAL COMPOUNDS AND METHODS OF TREATING DISEASE” (Halda Therapeutics OpCo, Inc., priority 2022, published 2025).
Like-named read-outs stand apart in the source and are kept apart here.

Tests used:
[1] = tested on: T-Rex 293 cell line SC3 cells having increased expression of androgen receptor protein; experiment: Cellular growth inhibition, T-Rex 293 SC3 cells with increased androgen receptor expression (doxycycline), CellTiter-Glo; format: cell-based; details: T-Rex 293 SC3 cells with increased androgen receptor expression (exposed to 10 ng/mL doxycycline), 72 hours, CellTiter-Glo; read-out: GI50
Summary of the method: (§1)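 SC3, a T-Rex 293 clone with doxycycline-inducible wild-type androgen receptor, was seeded in phenol red-free DMEM with 10% charcoal-dextran FBS, with or without 10 ng/mL doxycycline. Compound added at 24 h (0.5% DMSO) for 72 h at 37° C. CellTiter-Glo 2.0 luminescence; GI50 from four-parameter fit.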

[2] = tested on: T-Rex 293 cell line SC3 cells lacking increased expression of androgen receptor protein; experiment: Cellular growth inhibition, T-Rex 293 SC3 cells lacking increased androgen receptor expression (no doxycycline), CellTiter-Glo; format: cell-based; details: T-Rex 293 SC3 cells lacking increased androgen receptor expression (not exposed to doxycycline), 72 hours, CellTiter-Glo; read-out: GI50
Summary of the method: as §1

VCaP cells = experiment: Cellular growth inhibition assay for VCaP cells, CellTiter-Glo; format: cell-based, human; details: VCaP cells, 72 hours, CellTiter-Glo, read-out: GI50
Summary of the method: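 GI50 values come from four-parameter curve fits of luminescence data normalized to a zero baseline. Compound, in medium with 0.5% DMSO, was added one day after plating and left for 72 h before CellTiter-Glo 2.0 addition.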

[3] = tested on: T-Rex 293 cell line SC cells having increased expression of progesterone receptor isoform B protein; experiment: Cellular growth inhibition, T-Rex 293 SC cells with increased progesterone receptor isoform B expression (doxycycline), CellTiter-Glo; format: cell-based; details: progesterone receptor isoform B induced with 10 ng/mL doxycycline, 72 hours
Description: (§2) The following types of cells were prepared for this experiment: (i) a T-Rex 293 cell line having increased expression of progesterone receptor isoform B protein due to exposure to doxycycline and (ii) a T-Rex 293 cell line lacking increased expression of progesterone receptor isoform B protein. Ability of the test compounds to inhibit proliferation of the foregoing cell types was evaluated according to the procedures set forth below.
(§3) The doxycycline-inducible progesterone receptor isoform B protein expressing cell line was established using the following protocol: T-Rex 293 cells were purchased from Invitrogen (Cat #R71007) and transfected using Lipofectamine 2000 with the wild-type progesterone receptor B protein sequence cloned into the pcDNA4/TO vector. Transfected cells were selected using 400 μg/mL Zeocin (Invitrogen Cat #R25001). Following selection, single clones were raised and maintained in Dulbecco's Modified Eagle Medium (DMEM) supplemented with 10% w/w Tetracycline-free fetal bovine serum (FBS) and 250 μg/mL Zeocin. Clones were analyzed for expression of progesterone receptor isoform B protein in the presence and absence of 10 ng/ml doxycycline (Sigma Cat #D9891), and a single doxycycline-inducible clone (hereinafter “SC”) was selected for use in downstream assays.
(§4) The SC cells were seeded on poly-D-lysine coated, black clear-bottom 384-well plates at 2500/well, in 25 μL Phenol Red Free Dulbecco's Modified Eagle Medium (DMEM) supplemented with 10% w/w charcoal-dextran treated fetal bovine serum (FBS) and 1% w/w pen-strep, with or without 10 ng/mL doxycycline. Pen-Strep is a commercially available mixture of penicillin G and streptomycin, which is used in mammalian cell culture media to prevent bacterial contamination. Phenol Red Free Dulbecco's Modified Eagle Medium (DMEM) supplemented with 10% w/w charcoal-dextran treated fetal bovine serum (FBS) and 1% w/w pen-strep, with or without 10 ng/mL doxycycline is herein referred to as Treatment Medium. Following seeding of cells in the plates, the plates were spun at 300×g for 30 seconds, then equilibrated to room temperature for 30 minutes, and then deposited in a humidified tissue culture incubator maintained at 37° C. with 5% CO2.
(§5) At 24 hours after seeding of the cells, dilutions of test compound were prepared in DMSO and dissolved in Treatment Medium, to achieve a final DMSO concentration of 0.5% w/w, thereby providing the Test Compound Solution. A 25 μL aliquot of the Test Compound Solution was added to cells in the well plates. An equal volume of a solution containing DMSO and Treatment Medium was used as a negative control. Following treatment of cells with Test Compound Solution or said equal volume of a solution containing DMSO and Treatment Medium, the plates were spun at 300×g for 30 seconds, and then left in an incubator for 72 hours.
(§6) At the end of the treatment duration, cell viability was quantified with CellTiter-Glo 2.0 reagent (Promega Cat #G9243). For this purpose, plates were equilibrated to room temperature for 30 minutes, and then 25 μL of CellTiter-Glo 2.0 reagent was added to cells in the plate wells. Plates were then agitated on a shaker for two minutes at 500 rpm and subsequently incubated at room temperature for 10 minutes. Following incubation, the plates were spun at 3000×g for 30 seconds, then sealed with an optical adhesive cover, and luminescence readings were measured with an EnVision Plate Reader (Perkin Elmer).
(§7) Data was normalized using zero luminescence for baseline. A four-parameter non-linear regression curve fit was applied to dose-response data in GraphPad Prism data analysis software to determine the half-maximal growth inhibitory concentration (GI50) for each test compound.

[4] = tested on: T-Rex 293 cell line SC cells lacking increased expression of progesterone receptor isoform B protein; experiment: Cellular growth inhibition, T-Rex 293 SC cells lacking increased progesterone receptor isoform B expression (no doxycycline), CellTiter-Glo; format: cell-based; details: T-Rex 293 SC cells not exposed to doxycycline, 72 hours
Description: as §2, §3, §4, §5, §6, §7

T47D cells = experiment: Cellular growth inhibition assay for T47D cells, CellTiter-Glo; format: cell-based, human; details: 72 hours treatment, CellTiter-Glo 2.0
Summary of the method: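 Growth inhibition as GI50, fitted with four parameters to CellTiter-Glo luminescence after 72 h of compound exposure (0.5% DMSO). Cells were T47D, grown in insulin-supplemented (0.2 units/mL) DMEM with 10% FBS and treated one day post-seeding.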

BRD4-BD1 = BRD4-BD1 (Homo sapiens (Human), UniProt O60885); experiment: bromoKdELECT assay for binding affinity to BRD4-BD1; details: 11-point 3-fold dilution
Description: (§8) Compounds were tested using a bromoKdELECT assay. T7 phage strains displaying bromodomains were grown in parallel in 24-well blocks in an E. coli host derived from the BL21 strain. E. coli were grown to log-phase and infected with T7 phage from a frozen stock (multiplicity of infection=0.4) and incubated with shaking at 32° C. until lysis (90-150 minutes). The lysates were centrifuged (5,000×g) and filtered (0.2 μm) to remove cell debris. Streptavidin-coated magnetic beads were treated with biotinylated small molecule or acetylated peptide ligands for 30 minutes at room temperature to generate affinity resins for bromodomain assays. The liganded beads were blocked with excess biotin and washed with blocking buffer (SeaBlock (Pierce), 1% BSA, 0.05% Tween 20, 1 mM DTT) to remove unbound ligand and to reduce nonspecific phage binding. Binding reactions were assembled by combining bromodomains, liganded affinity beads, and test compounds in 1× binding buffer (17% SeaBlock, 0.33×PBS, 0.04% Tween 20, 0.02% BSA, 0.004% Sodium azide, 7.4 mM DTT). Test compounds were prepared as 1000× stocks in 100% DMSO. Kds were determined using an 11-point 3-fold compound dilution series with one DMSO control point. All compounds for Kd measurements are distributed by acoustic transfer (non-contact dispensing) in 100% DMSO. The compounds were then diluted directly into the assays such that the final concentration of DMSO was 0.09%. All reactions performed in polypropylene 384-well plates. Each was a final volume of 0.02 ml. The assay plates were incubated at room temperature with shaking for 1 hour and the affinity beads were washed with wash buffer (1×PBS, 0.05% Tween 20). The beads were then resuspended in elution buffer (1×PBS, 0.05% Tween 20, 2 μM non-biotinylated affinity ligand) and incubated at room temperature with shaking for 30 minutes. The bromodomain concentration in the eluates was measured by qPCR.

BRD4-BD2 = BRD4-BD2 (Homo sapiens (Human), UniProt O60885); experiment: bromoKdELECT assay for binding affinity to BRD4-BD2; details: 11-point 3-fold dilution
Description: as §8

| GI50 (VCaP cells; Homo sapiens) | GI50 (T47D cells; Homo sapiens) | GI50 (VCaP cells) | GI50 (T47D cells) | Kd (BRD4-BD1) | Kd (BRD4-BD2) | SMILES | GI50 [1] | GI50 [2] | GI50 [3] | GI50 [4] |
| --- | --- | --- | --- | --- | --- | --- | --- | --- | --- | --- |
| < 500 nM | < 500 nM |  |  |  |  | CCS(=O)(=O)Nc1ccc(Oc2cccc(OCCOCCOCCOC3CCN(c4ccc(C(=O)N[C@H]5CC[C@H](Oc6ccc(C#N)c(Cl)c6)CC5)nn4)CC3)c2)c(-c2cn(C)c(=O)c3[nH]ccc23)c1 [I-2, N-[4-(3-chloro-4-cyano-phenoxy)cyclohexyl]-6-[4-[2-[2-[2-[3-[4-(ethylsulfonylamino)-2-(6-methyl-7-oxo-1H-pyrrolo[2,3-c]pyridin-4-yl)phenoxy]phenoxy]ethoxy]ethoxy]ethoxy]-1-piperidyl]pyridazine-3-carboxamide] | < 500 nM | 500 to 1500 nM | < 500 nM | < 500 nM |
| < 500 nM | < 500 nM |  |  |  |  | CCS(=O)(=O)Nc1ccc(Oc2cccc(N3CC(OC4CCN(c5ccc(C(=O)N[C@H]6CC[C@H](Oc7ccc(C#N)c(Cl)c7)CC6)nn5)CC4)C3)c2F)c(-c2cn(C)c(=O)c3[nH]ccc23)c1 [I-25] | < 500 nM | > 3000 nM | < 500 nM | < 500 nM |
| < 500 nM | < 500 nM |  |  |  |  | CCS(=O)(=O)c1ccc(Oc2cccc(OCCN3CCN(c4ccc(C(=O)NC5CCC(Oc6ccc(C#N)c(Cl)c6)CC5)nn4)CC3)c2F)c(-c2cn(C)c(=O)c3[nH]ccc23)c1 (centres unmarked) [I-40, N-[4-(3-chloro-4-cyano-phenoxy)cyclohexyl]-6-[4-[2-[3-[4-ethylsulfonyl-2-(6-methyl-7-oxo-1H-pyrrolo[2,3-c]pyridin-4-yl)phenoxy]-2-fluoro-phenoxy]ethyl]piperazin-1-yl]pyridazine-3-carboxamide] | < 500 nM | < 500 nM | < 500 nM | < 500 nM |
| < 500 nM | < 500 nM |  |  |  |  | CCS(=O)(=O)c1ccc(Oc2cccc(CCCCN3CC4(C3)CN(c3ccc(C(=O)N[C@H]5CC[C@H](Oc6ccc(C#N)c(Cl)c6)CC5)nn3)C4)c2F)c(-c2cn(C)c(=O)c3[nH]ccc23)c1 [I-47] | < 500 nM | < 500 nM | < 500 nM | < 500 nM |
|  |  | < 500 nM | < 500 nM |  |  | Cn1cc(-c2cc(C(C)(C)O)ccc2Oc2ccc(OCC3CCN(c4ccc(C(=O)N[C@H]5CC[C@H](Oc6ccc(C#N)c(Cl)c6)CC5)nn4)CC3)cc2)c2cc[nH]c2c1=O [I-96] | < 500 nM | < 500 nM | < 500 nM | < 500 nM |
| < 500 nM | < 500 nM |  |  |  |  | Cn1cc(-c2cc(C(C)(C)O)ccc2Oc2ccc(OCCN3CCN(c4ccc(C(=O)N[C@H]5CC[C@H](Oc6ccc(C#N)c(Cl)c6)CC5)nn4)CC3)cc2)c2cc[nH]c2c1=O [I-97] | < 500 nM | < 500 nM | < 500 nM | < 500 nM |
|  |  | < 500 nM |  |  |  | CN(CCOc1ccc(Oc2ccc(C(C)(C)O)cc2-c2cn(C)c(=O)c3[nH]ccc23)cc1)c1ccc(C(=O)N[C@H]2CC[C@H](Oc3ccc(C#N)c(Cl)c3)CC2)nn1 [I-98] | < 500 nM | < 500 nM | < 500 nM | < 500 nM |
|  |  | < 500 nM | 500 to 1500 nM |  |  | CN(CCCOc1ccc(Oc2ccc(C(C)(C)O)cc2-c2cn(C)c(=O)c3[nH]ccc23)cc1)c1ccc(C(=O)N[C@H]2CC[C@H](Oc3ccc(C#N)c(Cl)c3)CC2)nn1 [I-99] | < 500 nM | < 500 nM | < 500 nM | 500 to 1500 nM |
| < 500 nM | < 500 nM |  |  |  |  | CN(CCc1ccc(Oc2ccc(C(C)(C)O)cc2-c2cn(C)c(=O)c3[nH]ccc23)cc1)c1ccc(C(=O)NC2CCC(Oc3ccc(C#N)c(Cl)c3)CC2)nn1 (centres unmarked) [I-100, N-[4-(3-chloro-4-cyano-phenoxy)cyclohexyl]-6-[2-[4-[4-(1-hydroxy-1-methyl-ethyl)-2-(6-methyl-7-oxo-1H-pyrrolo[2,3-c]pyridin-4-yl)phenoxy]phenyl]ethyl-methyl-amino]pyridazine-3-carboxamide] | < 500 nM | < 500 nM | < 500 nM | < 500 nM |
| < 500 nM | < 500 nM |  |  | 50 to 500 nM | 50 to 500 nM | CN(c1ccc(Oc2ccc(C(C)(C)O)cc2-c2cn(C)c(=O)c3[nH]ccc23)cc1)C1CCN(c2ccc(C(=O)N[C@H]3CC[C@H](Oc4ccc(C#N)c(Cl)c4)CC3)nn2)CC1 [I-137, N-[4-(3-chloro-4-cyano-phenoxy)cyclohexyl]-6-[4-[4-[4-(1-hydroxy-1-methyl-ethyl)-2-(6-methyl-7-oxo-1H-pyrrolo[2,3-c]pyridin-4-yl)phenoxy]-N-methyl-anilino]-1-piperidyl]pyridazine-3-carboxamide] | < 500 nM | > 3000 nM |  |  |
|  |  | < 500 nM | < 500 nM | 50 to 500 nM | 50 to 500 nM | CCS(=O)(=O)c1ccc(Oc2ccc(CCC3CCN(c4ccc(C(=O)N[C@H]5CC[C@H](Oc6ccc(C#N)c(Cl)c6)CC5)nn4)CC3)nc2)c(-c2cn(C)c(=O)c3[nH]ccc23)c1 [I-219] | < 500 nM | < 500 nM |  |  |
